# Target: PD-1/PD-L1 (Homo sapiens (Human), UniProt Q9NZQ7)
# Test: PD-1/PD-L1 Binding Assay (Alphascreen)
# Details: range symbols
# Outline: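 PD-1/PD-L1 binding detected by anti-6×His acceptor and streptavidin donor beads after 120 min in the dark at 25 °C. Beforehand, the two proteins were incubated 15 min at 25 °C with inhibitor at 0.015–300 nM (1% DMSO). IC50 comes from a log concentration–response curve.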
# Sequence of PD-1/PD-L1 (Q9NZQ7 19-238): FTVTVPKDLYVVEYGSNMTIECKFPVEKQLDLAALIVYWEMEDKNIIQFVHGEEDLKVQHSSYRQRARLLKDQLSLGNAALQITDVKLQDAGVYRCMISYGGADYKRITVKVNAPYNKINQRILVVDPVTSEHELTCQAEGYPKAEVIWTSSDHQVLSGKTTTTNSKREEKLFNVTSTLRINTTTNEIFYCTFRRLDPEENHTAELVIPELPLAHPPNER
row,Structure (SMILES),IC50 [nM]
1,"Cc1c(-c2nc3cc(CN4CCC[C@H]4C(=O)O)c(OC(F)F)cc3o2)cccc1-c1cccc(-c2nc3cc(CNC4(C)COC4)cc(C#N)c3o2)c1C [Example 133, ((2-(3′-(7-cyano-5-(((3-methyloxetan-3-yl)amino)methyl)benzo[d]oxazol-2-yl)-2,2′-dimethyl-[1,1′-biphenyl]-3-yl)-6-(difluoromethoxy)benzo[d]oxazol-5-yl)methyl)-L-proline]",0.1 to 5
2,"Cc1c(-c2nc3cc(CN4CCC[C@H]4C(=O)O)c(OC(F)F)cc3o2)cccc1-c1cccc(-c2nc3cc(CN4CC(N(C)C)C4)cc(C#N)c3o2)c1C [Example 134, ((2-(3′-(7-cyano-5-((3-(dimethylamino)azetidin-1-yl)methyl)benzo[d]oxazol-2-yl)-2,2′-dimethyl-[1,1′-biphenyl]-3-yl)-6-(difluoromethoxy)benzo[d]oxazol-5-yl)methyl)-L-proline]",0.1 to 5
3,"Cc1c(-c2nc3cc(CN4CCC[C@H]4C(=O)O)c(OC(F)F)cc3o2)cccc1-c1cccc(-c2nc3cc(CN4CCCCC4CCO)cc(C#N)c3o2)c1C (stereo partly drawn) [Example 135, ((2-(3′-(7-cyano-5-((2-(2-hydroxyethyl)piperidin-1-yl)methyl)benzo[d]oxazol-2-yl)-2,2′-dimethyl-[1,1′-biphenyl]-3-yl)-6-(difluoromethoxy)benzo[d]oxazol-5-yl)methyl)-L-proline]",0.1 to 5
4,"Cc1c(-c2nc3cc(CN4CCC[C@H]4C(=O)O)c(OC(F)F)cc3o2)cccc1-c1cccc(-c2nc3cc(CN4CC(CO)C4)cc(C#N)c3o2)c1C [Example 137, ((2-(3′-(7-cyano-5-((3-(hydroxymethyl)azetidin-1-yl)methyl)benzo[d]oxazol-2-yl)-2,2′-dimethyl-[1,1′-biphenyl]-3-yl)-6-(difluoromethoxy)benzo[d]oxazol-5-yl)methyl)-L-proline]",0.1 to 5
5,"Cc1c(-c2nc3cc(CN4CCC[C@H]4C(=O)O)c(OC(F)F)cc3o2)cccc1-c1cccc(-c2nc3cc(CNCC(C)(C)O)cc(C#N)c3o2)c1C [Example 138, ((2-(3′-(7-cyano-5-(((2-hydroxy-2-methylpropyl)amino)methyl)benzo[d]oxazol-2-yl)-2,2′-dimethyl-[1,1′-biphenyl]-3-yl)-6-(difluoromethoxy)benzo[d]oxazol-5-yl)methyl)-L-proline]",0.1 to 5
6,"Cc1c(-c2nc3cc(CN4CCC[C@H]4C(=O)O)c(OC(F)F)cc3o2)cccc1-c1cccc(-c2nc3cc(CNCC4CCC(=O)N4)cc(C#N)c3o2)c1C (stereo partly drawn) [Example 139, ((2-(3′-(7-cyano-5-((((5-oxopyrrolidin-2-yl)methyl)amino)methyl)benzo[d]oxazol-2-yl)-2,2′-dimethyl-[1,1′-biphenyl]-3-yl)-6-(difluoromethoxy)benzo[d]oxazol-5-yl)methyl)-L-proline]",0.1 to 5
7,"Cc1c(-c2nc3cc(CN4CCC[C@@H]4C(=O)O)c(OC(F)F)cc3o2)cccc1-c1cccc(-c2nc3cc(CN4CC(C)(C)C4)cc(C#N)c3o2)c1C [Example 140, ((2-(3′-(7-cyano-5-((3,3-dimethylazetidin-1-yl)methyl)benzo[d]oxazol-2-yl)-2,2′-dimethyl-[1,1′-biphenyl]-3-yl)-6-(difluoromethoxy)benzo[d]oxazol-5-yl)methyl)-D-proline]",0.1 to 5
8,"CCN(CCO)Cc1cc(C#N)c2oc(-c3cccc(-c4cccc(-c5nc6cc(CN7CCC[C@H]7C(=O)O)c(OC(F)F)cc6o5)c4C)c3C)nc2c1 [Example 141, ((2-(3′-(7-cyano-5-((ethyl(2-hydroxyethyl)amino)methyl)benzo[d]oxazol-2-yl)-2,2′-dimethyl-[1,1′-biphenyl]-3-yl)-6-(difluoromethoxy)benzo[d]oxazol-5-yl)methyl)-L-proline]",0.1 to 5
9,"Cc1c(-c2nc3cc(CN4CCC[C@@H]4C(=O)O)c(OC(F)F)cc3o2)cccc1-c1cccc(-c2nc3cc(CN4CCC(C#N)C4)cc(C#N)c3o2)c1C (stereo partly drawn) [Example 143, ((2-(3′-(7-cyano-5-((3-cyanopyrrolidin-1-yl)methyl)benzo[d]oxazol-2-yl)-2,2′-dimethyl-[1,1′-biphenyl]-3-yl)-6-(difluoromethoxy)benzo[d]oxazol-5-yl)methyl)-D-proline]",0.1 to 5
10,"Cc1c(-c2nc3cc(CN4CCC[C@@H]4C(=O)O)c(OC(F)F)cc3o2)cccc1-c1cccc(-c2nc3cc(CN4CCCC4)cc(C#N)c3o2)c1C [Example 145, ((2-(3′-(7-cyano-5-(pyrrolidin-1-ylmethyl)benzo[d]oxazol-2-yl)-2,2′-dimethyl-[1,1′-biphenyl]-3-yl)-6-(difluoromethoxy)benzo[d]oxazol-5-yl)methyl)-D-proline]",0.1 to 5
11,"Cc1c(-c2nc3cc(CN4CCC[C@H]4C(=O)O)c(OC(F)F)cc3o2)cccc1-c1cccc(-c2nc3cc(CN4CC5(CNC(=O)C5)C4)cc(C#N)c3o2)c1C [Example 146, ((2-(3′-(7-cyano-5-((7-oxo-2,6-diazaspiro[3.4]octan-2-yl)methyl)benzo[d]oxazol-2-yl)-2,2′-dimethyl-[1,1′-biphenyl]-3-yl)-6-(difluoromethoxy)benzo[d]oxazol-5-yl)methyl)-L-proline]",0.1 to 5
12,"Cc1c(-c2nc3cc(CN4CCC[C@H]4C(=O)O)c(OC(F)F)cc3o2)cccc1-c1cccc(-c2nc3cc(CN(C(C)CO)C(C)CO)cc(C#N)c3o2)c1C (stereo partly drawn) [Example 147, ((2-(3′-(5-((bis(1-hydroxypropan-2-yl)amino)methyl)-7-cyanobenzo[d]oxazol-2-yl)-2,2′-dimethyl-[1,1′-biphenyl]-3-yl)-6-(difluoromethoxy)benzo[d]oxazol-5-yl)methyl)-L-proline]",0.1 to 5
13,"Cc1c(-c2nc3cc(CN4CCC[C@H]4C(=O)O)c(OC(F)F)cc3o2)cccc1-c1cccc(-c2nc3cc(CN4CC(N5CCOCC5)C4)cc(C#N)c3o2)c1C [Example 148, ((2-(3′-(7-cyano-5-((3-morpholinoazetidin-1-yl)methyl)benzo[d]oxazol-2-yl)-2,2′-dimethyl-[1,1′-biphenyl]-3-yl)-6-(difluoromethoxy)benzo[d]oxazol-5-yl)methyl)-L-proline]",5 to 50
14,"Cc1c(-c2nc3cc(CN4CCC[C@H]4C(=O)O)c(OC(F)F)cc3o2)cccc1-c1cccc(-c2nc3cc(CN4CC(N(C)C5COC5)C4)cc(C#N)c3o2)c1C [Example 149, ((2-(3′-(7-cyano-5-((3-(methyl(oxetan-3-yl)amino)azetidin-1-yl)methyl)benzo[d]oxazol-2-yl)-2,2′-dimethyl-[1,1′-biphenyl]-3-yl)-6-(difluoromethoxy)benzo[d]oxazol-5-yl)methyl)-L-proline]",0.1 to 5
15,"Cc1c(-c2nc3cc(CN4CCC[C@H]4C(=O)O)c(OC(F)F)cc3o2)cccc1-c1cccc(-c2nc3cc(CN4CC(N5CC(C)(O)C5)C4)cc(C#N)c3o2)c1C [Example 150, ((2-(3′-(7-cyano-5-((3-hydroxy-3-methyl-[1,3′-biazetidin]-1′-yl)methyl)benzo[d]oxazol-2-yl)-2,2′-dimethyl-[1,1′-biphenyl]-3-yl)-6-(difluoromethoxy)benzo[d]oxazol-5-yl)methyl)-L-proline]",0.1 to 5
16,"Cc1c(-c2nc3cc(CN4CCC[C@H]4C(=O)O)c(OC(F)F)cc3o2)cccc1-c1cccc(-c2nc3cc(CN4CC5(CCC(=O)N5)C4)cc(C#N)c3o2)c1C [Example 151, ((2-(3′-(7-cyano-5-((6-oxo-2,5-diazaspiro[3.4]octan-2-yl)methyl)benzo [d]oxazol-2-yl)-2,2′-dimethyl-[1,1′-biphenyl]-3-yl)-6-(difluoromethoxy)benzo[d]oxazol-5-yl)methyl)-L-proline]",0.1 to 5
17,"Cc1c(-c2nc3cc(CN4CCC[C@H]4C(=O)O)c(OC(F)F)cc3o2)cccc1-c1cccc(-c2nc3cc(CN4CCC(CN(C)C)C4)cc(C#N)c3o2)c1C (stereo partly drawn) [Example 152, ((2-(3′-(7-cyano-5-((3-((dimethylamino)methyl)pyrrolidin-1-yl)methyl)benzo [d]oxazol-2-yl)-2,2′-dimethyl-[1,1′-biphenyl]-3-yl)-6-(difluoromethoxy)benzo[d]oxazol-5-yl)methyl)-L-proline]",0.1 to 5
18,"Cc1c(-c2nc3cc(CN4CCC[C@H]4C(=O)O)c(OC(F)F)cc3o2)cccc1-c1cccc(-c2nc3cc(CN4CCC5(C4)CC5(F)F)cc(C#N)c3o2)c1C (stereo partly drawn) [Example 153, ((2-(3′-(7-cyano-5-((1,1-difluoro-5-azaspiro[2.4]heptan-5-yl)methyl)benzo [d]oxazol-2-yl)-2,2′-dimethyl-[1,1′-biphenyl]-3-yl)-6-(difluoromethoxy)benzo[d]oxazol-5-yl)methyl)-L-proline]",0.1 to 5
19,"Cc1c(-c2nc3cc(CN4CCC[C@H]4C(=O)O)c(OC(F)F)cc3o2)cccc1-c1cccc(-c2nc3cc(CN4CC[C@@H](CO)C4)cc(C#N)c3o2)c1C [Example 154, ((2-(3′-(7-cyano-5-(((R)-3-(hydroxymethyl)pyrrolidin-1-yl)methyl)benzo [d]oxazol-2-yl)-2,2′-dimethyl-[1,1′-biphenyl]-3-yl)-6-(difluoromethoxy)benzo[d]oxazol-5-yl)methyl)-L-proline]",5 to 50
20,Cc1c(-c2nc3cc(CN4CCC[C@H]4C(=O)O)c(OC(F)F)cc3o2)cccc1-c1cccc(-c2nc3cc(CNC4CC(O)C4)cc(C#N)c3o2)c1C (some centres unmarked) [Example 155],0.1 to 5
21,Cc1c(-c2nc3cc(CN4CCC[C@H]4C(=O)O)c(OC(F)F)cc3o2)cccc1-c1cccc(-c2nc3cc(CN4CC(C)C(N)C4)cc(C#N)c3o2)c1C (some centres unmarked) [Example 156],0.1 to 5
22,Cc1c(-c2nc3cc(CN4CCC[C@H]4C(=O)O)c(OC(F)F)cc3o2)cccc1-c1cccc(-c2nc3cc(CNCC4CNC4)cc(C#N)c3o2)c1C [Example 157],0.1 to 5
23,"Cc1c(-c2nc3cc(CN4CCC[C@H]4C(=O)O)c(OC(F)F)cc3o2)cccc1-c1cccc(-c2nc3cc(CN4CC(C)C(N(C)C)C4)cc(C#N)c3o2)c1C (stereo partly drawn) [Example 158, ((2-(3′-(7-cyano-5-((3-(dimethylamino)-4-methylpyrrolidin-1-yl)methyl)benzo[d]oxazol-2-yl)-2,2′-dimethyl-[1,1′-biphenyl]-3-yl)-6-(difluoromethoxy)benzo[d]oxazol-5-yl)methyl)-L-proline]",0.1 to 5
